Laboratory results published in PMC2580052 (Proteins, 2008).

Target: T1, geranylgeranyl diphosphate synthase (GGPPS) (Saccharomyces cerevisiae, UniProt Q12051)
T1 sequence (Q12051 1-335): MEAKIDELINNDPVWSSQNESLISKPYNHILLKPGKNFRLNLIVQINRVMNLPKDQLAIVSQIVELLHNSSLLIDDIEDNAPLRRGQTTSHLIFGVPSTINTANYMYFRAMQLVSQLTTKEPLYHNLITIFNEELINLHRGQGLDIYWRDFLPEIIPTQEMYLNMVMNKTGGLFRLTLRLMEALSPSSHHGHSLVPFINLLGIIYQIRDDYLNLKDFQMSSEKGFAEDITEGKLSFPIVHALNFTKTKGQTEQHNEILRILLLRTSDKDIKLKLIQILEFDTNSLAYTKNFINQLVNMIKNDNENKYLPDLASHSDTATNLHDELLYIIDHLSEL
Assay: X-ray crystal structure
Format: binding

For `CN(CCCCc1ccccc1)CCC(O)(P(=O)(O)O)P(=O)(O)O` [compound 5, N-[methyl(4-phenylbutyl)]-3-aminopropyl-1-hydroxy-1,1-bisphosphonate], which “X-ray crystal structure (2.08 Å, soaked crystals)” value is on record?
The value was “We thus crystallized and determined the x-ray crystallographic structure of BPH-210 bound to GGPPS”.
